Test results taken from ChEMBL document CHEMBL2010784 (ACS Med Chem Lett, 2011).
Activity calls are given as the source filed them. No cut-off for these calls is given here.

Assays:
[1] = test system: Mammalian orthoreovirus 1; test: Antiviral activity against Reovirus-1 infected in african green monkey Vero cells assessed as inhibition of viral-induced cytopathogenicity; type: functional, organism-based
[2] = test system: Punta Toro virus; test: Antiviral activity against Punta Toro virus infected in african green monkey Vero cells assessed as inhibition of viral-induced cytopathogenicity; type: functional, organism-based
[3] = test system: Coxsackievirus B4; test: Antiviral activity against Coxsackie B4 virus infected in african green monkey Vero cells assessed as inhibition of viral-induced cytopathogenicity; type: functional, organism-based
[4] = test system: Human immunodeficiency virus 1; test: Antiviral activity against HIV-1 infected in human MT-4 cells assessed as inhibition of viral-induced cytopathogenicity after 4 days by MTT assay; type: functional, organism-based; settings: Human immunodeficiency virus 1, MT4, 96 h
[5] = test system: Sindbis virus; test: Antiviral activity against Sindbis virus infected in african green monkey Vero cells assessed as inhibition of viral-induced cytopathogenicity; type: functional, organism-based
[6] = test system: Respiratory syncytial virus; test: Antiviral activity against RSV infected in human HeLa cells assessed as inhibition of viral-induced cytopathogenicity; type: functional, organism-based
[7] = test system: Human respirovirus 3; test: Antiviral activity against Parainfluenza-3 virus infected in african green monkey Vero cells assessed as inhibition of viral-induced cytopathogenicity; type: functional, organism-based
[8] = test system: Felid alphaherpesvirus 1; test: Antiviral activity against Feline herpes virus infected in CrFK cells assessed as inhibition of viral-induced cytopathogenicity; type: functional, organism-based
[9] = test system: Vesicular stomatitis virus; test: Antiviral activity against VSV infected in human HeLa cells assessed as inhibition of viral-induced cytopathogenicity; type: functional, organism-based
[10] = test system: Feline coronavirus; test: Antiviral activity against Feline coronavirus infected in CrFK cells assessed as inhibition of viral-induced cytopathogenicity; type: functional, organism-based
[11] = (§1) Cytotoxicity against human MT4 cells after 4 days by MTT assay; type: cell-based; settings: MT4 cells
[12] = test system: Influenza B virus; test: Antiviral activity against influenza B virus infected in MDCK cells assessed as inhibition of viral-induced cytopathogenicity; type: functional, organism-based
[13] = test system: Influenza A virus; test: Antiviral activity against Influenza A virus H3N2 infected in MDCK cells assessed as inhibition of viral-induced cytopathogenicity; type: functional, organism-based
[14] = Selectivity index, ratio of CC50 for human MT-4 cells to EC50 for HIV-1; type: toxicity, cell-based, MT4; settings: read-out: Ratio CC50/EC50
[15] = test system: Influenza A virus; test: Antiviral activity against Influenza A virus H1N1 infected in MDCK cells assessed as inhibition of viral-induced cytopathogenicity; type: functional, organism-based
[16] = test system: MT4; test: as §1; type: cell-based; settings: mt4, 96 h
[17] = Selectivity index, ratio of MCC for human HEL cells to EC50 for HSV-1 KOS
[18] = test system: Human alphaherpesvirus 2; test: Antiviral activity against HSV-2 G infected in HEL cells assessed as inhibition of viral-induced cytopathogenicity; type: functional, organism-based; settings: Human alphaherpesvirus 2, strain G
[19] = Cytotoxicity against human HEL cells assessed as changes in cell morphology by microscopy; type: cell-based
[20] = Selectivity index, ratio of MCC for human HEL cells to EC50 for HSV-2 G
[21] = test system: Human alphaherpesvirus 1; test: Antiviral activity against ACV-resistant TK-deficient HSV-1 KOS infected in HEL cells assessed as inhibition of viral-induced cytopathogenicity; type: functional, organism-based; settings: Human alphaherpesvirus 1, KOS
[22] = test system: Human alphaherpesvirus 1; test: Antiviral activity against HSV-1 KOS infected in HEL cells assessed as inhibition of viral-induced cytopathogenicity; type: functional, organism-based; settings: Human alphaherpesvirus 1, KOS

For `C#C[C@]1(CO)O[C@@H](n2ccc(N)nc2=O)C[C@@H]1O`, the Activity [1] was “inactive”, the Activity [2] was “inactive” and the Activity [3] was “inactive”. The EC50 [4] was 0.0048 µM, the Activity [5] was “inactive” and the Activity [6] was “inactive”. For the same compound, the Activity [7] was “inactive”, the Activity [8] was “inactive” and the Activity [9] was “inactive”. The Activity [10] was “inactive”.
For `C#C[C@]1(CO)O[C@@H](n2cnc3c(N)ncnc32)C[C@@H]1O`, the Activity [1] was “inactive”, the Activity [2] was “inactive” and the CC50 at 96 h [11] was 16 µM. The Activity [3] was “inactive”, the Activity [12] was “inactive” and the Activity [13] was “inactive”. The EC50 [4] was 0.0098 µM, the Activity [5] was “inactive” and the selectivity ratio [14] was 1630. The Activity [6] was “inactive”, the Activity [7] was “inactive” and the Activity [8] was “inactive”. The Activity [9] was “inactive”, the Activity [15] was “inactive” and the Activity [10] was “inactive”.
With `C#C[C@]1(CO)S[C@@H](n2cnc3c(=O)[nH]c(N)nc32)C[C@@H]1O` the Activity [1] was “inactive”, the Activity [2] was “inactive” and the CC50 [16] was over 100 µM. The Activity [3] was “inactive”, the Activity [12] was “inactive” and the Activity [13] was “inactive”. The EC50 [4] was 0.0055 µM, the “Selectivity Index” value [17] was over 50 and the Activity [5] was “inactive”. The selectivity ratio [14] was over 18200, the Activity [6] was “inactive” and the Activity [7] was “inactive”. For the same compound, the EC50 [18] was 1.5 µM, the MCC [19] was over 100 µM and the Activity [8] was “inactive”. The “Selectivity Index” value [20] was over 50, the Activity [9] was “inactive” and the Activity [15] was “inactive”. The EC50 [21] was 4.5 µM, the EC50 [22] was 3 µM and the Activity [10] was “inactive”.
With `C#C[C@]1(CO)S[C@@H](n2cnc3c(N)ncnc32)C[C@@H]1O` the Activity [1] was “inactive”, the Activity [2] was “inactive” and the CC50 [16] was over 20 µM. The Activity [3] was “inactive”, the Activity [12] was “inactive” and the Activity [13] was “inactive”. For the same compound, the EC50 [4] was 0.087 µM, the Activity [5] was “inactive” and the selectivity ratio [14] was over 230. For the same compound, the Activity [6] was “inactive”, the Activity [7] was “inactive” and the EC50 [18] was 4 µM. The MCC [19] was over 100 µM, the Activity [8] was “inactive” and the Activity [9] was “inactive”. For the same compound, the Activity [15] was “inactive”, the EC50 [21] was 8 µM and the EC50 [22] was 7 µM. The Activity [10] was “inactive”.
For `C#C[C@]1(CO)S[C@@H](n2ccc(N)nc2=O)C[C@@H]1O`, the Activity [1] was “inactive”, the Activity [2] was “inactive” and the CC50 [16] was 6 µM. The Activity [3] was “inactive”, the Activity [12] was “inactive” and the Activity [13] was “inactive”. The EC50 [4] was 0.011 µM, the “Selectivity Index” value [17] was over 50 and the Activity [5] was “inactive”. For the same compound, the selectivity ratio [14] was 545, the Activity [6] was “inactive” and the Activity [7] was “inactive”. For the same compound, the EC50 [18] was 1.5 µM, the MCC [19] was over 100 µM and the Activity [8] was “inactive”. For the same compound, the “Selectivity Index” value [20] was over 50, the Activity [9] was “inactive” and the Activity [15] was “inactive”. For the same compound, the EC50 [21] was 2.5 µM, the EC50 [22] was 2 µM and the Activity [10] was “inactive”.
For `C#C[C@]1(CO)O[C@@H](n2cnc3c(=O)[nH]c(N)nc32)C[C@@H]1O`, the Activity [1] was “inactive”, the Activity [2] was “inactive” and the CC50 at 96 h [11] was 1.4 µM. For the same compound, the Activity [3] was “inactive”, the Activity [12] was “inactive” and the Activity [13] was “inactive”. The EC50 [4] was 0.0015 µM, the Activity [5] was “inactive” and the selectivity ratio [14] was 933. For the same compound, the Activity [6] was “inactive”, the Activity [7] was “inactive” and the Activity [8] was “inactive”. The Activity [9] was “inactive”, the Activity [15] was “inactive” and the Activity [10] was “inactive”.
`Nc1nc2c(ncn2COC(CO)CO)c(=O)[nH]1` [GANCICLOVIR] gave an MCC [19] of over 100 µM.
